Test results taken from US9028845B2, “Chimeric immunomodulatory compounds and methods of using the same-IV” (Dynavax Technologies Corporation, priority 2001, dated 2015).

Tested on: human PBMCs
Experiment: Human PBMC cytokine response assay (IFN-γ and IFN-α in cell-free medium by ELISA), with or without cPLGA;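 for IFN-α (pg/ml) mean: 20 µg/mL compound for 24 hours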;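 for IFN-γ (pg/ml) mean: 20 µg/mL compound for 24 hours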
Type: cell-based
Settings: for immunomodulatory activity (IFN-γ / IFN-α secretion), in words: used alone (no cPLGA)
[1] = mean of donors 110, 112, 119, 120, Table 14
[2] = Table 24, mean of donors 28234-28237
[3] = mean of donors 28185-28188, Table 15
[4] = mean of donors 28057-28060, Table 16

TMEA-(5′-TGACTGTGAACGTTCGAGATGA-3′)3 (SEQ ID NO: 139) (See Ex. 23) [Compound C-99]
IFN-α (donor 110, Table 14): 22 pg/mL
IFN-γ (donor 110, Table 14): 276 pg/mL
IFN-α (donor 112, Table 14): 4 pg/mL
IFN-γ (donor 112, Table 14): 12 pg/mL
IFN-α (donor 119, Table 14): 86 pg/mL
IFN-γ (donor 119, Table 14): 16 pg/mL
IFN-α (donor 120, Table 14): 2 pg/mL
IFN-γ (donor 120, Table 14): 40 pg/mL
IFN-γ induction when formulated with cPLGA, in words (formulated with cPLGA): induced IFN-γ only when formulated with cPLGA
IFN-α (pg/ml) mean [1]: 29 pg/mL
IFN-γ (pg/ml) mean [1]: 86 pg/mL
IFN-α induction, in words (used alone): did not induce IFN-α

5′-TCGTCGA-3′-C3-5′-TCGTCGA-3′-C3-5′-TCGTCGA-3′ all phosphorothioate linkages [Compound C-33]
IFN-α (Table 9, donor 28089): 56 pg/mL
IFN-γ (Table 9, donor 28089): 0 pg/mL
IFN-α (Table 9, donor 28090): 22 pg/mL
IFN-γ (Table 9, donor 28090): 0 pg/mL
IFN-α (Table 9, donor 28098): 34 pg/mL
IFN-γ (Table 9, donor 28098): 0 pg/mL
IFN-α (Table 9, donor 28099): 30 pg/mL
IFN-γ (Table 9, donor 28099): 3 pg/mL
IFN-α mean (Table 9, mean of donors): 36 pg/mL
IFN-γ mean (Table 9, mean of donors): 1 pg/mL
IFN-α (Table 24, donor 28234): 16 pg/mL
IFN-γ (Table 24, donor 28234): 23 pg/mL
IFN-α (Table 24, donor 28235): 16 pg/mL
IFN-γ (Table 24, donor 28235): 86 pg/mL
IFN-α (Table 24, donor 28236): 16 pg/mL
IFN-γ (Table 24, donor 28236): 247 pg/mL
IFN-α (Table 24, donor 28237): 91 pg/mL
IFN-γ (Table 24, donor 28237): 2076 pg/mL
IFN-α mean [2]: 35 pg/mL
IFN-γ mean [2]: 608 pg/mL

5′-TCG-3′-(ab)3-5′-T-3′ [Compound C-91]
IFN-a (donor 28185, Table 15): 9 pg/mL
IFN-g (donor 28185, Table 15): 3 pg/mL
IFN-a (donor 28186, Table 15): 46 pg/mL
IFN-g (donor 28186, Table 15): 4 pg/mL
IFN-a (donor 28187, Table 15): 37 pg/mL
IFN-g (donor 28187, Table 15): 6 pg/mL
IFN-a (donor 28188, Table 15): 4 pg/mL
IFN-g (donor 28188, Table 15): 7 pg/mL
activity when formulated with cPLGA, in words (formulated with cPLGA): significant activity when formulated on cPLGA
IFN-a (pg/ml) mean [3]: 24 pg/mL
IFN-g (pg/ml) mean [3]: 5 pg/mL
IFN-a (pg/ml) ×2 (mean ×2, Table 15): 48 pg/mL
IFN-g (pg/ml) ×4 (mean ×4, Table 15): 20 pg/mL
immunomodulatory activity (IFN-γ / IFN-α secretion), in words: neither CIC was active on its own

5′-TCGTTTT-3′-HEG-5′-TCGTTTT-3′-HEG-5′-TCGTTTT-3′ [Compound C-41]
IFN-α (Table 10, donor 28042): 0 pg/mL
IFN-γ (Table 10, donor 28042): 174 pg/mL
IFN-α (Table 10, donor 28043): 3 pg/mL
IFN-γ (Table 10, donor 28043): 1075 pg/mL
IFN-α (Table 10, donor 28044): 23 pg/mL
IFN-γ (Table 10, donor 28044): 841 pg/mL
IFN-α (Table 10, donor 28045): 0 pg/mL
IFN-γ (Table 10, donor 28045): 45 pg/mL
IFN-α mean (Table 10, mean of donors): 7 pg/mL
IFN-γ mean (Table 10, mean of donors): 534 pg/mL
IFN-α (donor 110, Table 14): 58 pg/mL
IFN-γ (donor 110, Table 14): 512 pg/mL
IFN-α (donor 112, Table 14): 2 pg/mL
IFN-γ (donor 112, Table 14): 100 pg/mL
IFN-α (donor 119, Table 14): 182 pg/mL
IFN-γ (donor 119, Table 14): 32 pg/mL
IFN-α (donor 120, Table 14): 6 pg/mL
IFN-γ (donor 120, Table 14): 32 pg/mL
IFN-α (pg/ml) mean [1]: 62 pg/mL
IFN-γ (pg/ml) mean [1]: 169 pg/mL

5′-TCGACGT-3′-HEG-5′-TCGACGT-3′-HEG-5′-TCGACGT-3′-HEG-5′-TCGACGT-3′ [Compound C-71]
IFN-α (Table 24, donor 28234): 17 pg/mL
IFN-γ (Table 24, donor 28234): 30 pg/mL
IFN-α (Table 24, donor 28235): 30 pg/mL
IFN-γ (Table 24, donor 28235): 168 pg/mL
IFN-α (Table 24, donor 28236): 538 pg/mL
IFN-γ (Table 24, donor 28236): 448 pg/mL
IFN-α (Table 24, donor 28237): 1665 pg/mL
IFN-γ (Table 24, donor 28237): 1663 pg/mL
IFN-α mean [2]: 563 pg/mL
IFN-γ mean [2]: 577 pg/mL

5′-TCGTCG-3′-(HEG)4-5′-T-3′ [Compound C-16]
IFN-α (donor 28057, Table 16): 0 pg/mL
IFN-γ (donor 28057, Table 16): 1 pg/mL
IFN-α (donor 28058, Table 16): 0 pg/mL
IFN-γ (donor 28058, Table 16): 2 pg/mL
IFN-α (donor 28059, Table 16): 0 pg/mL
IFN-γ (donor 28059, Table 16): 0 pg/mL
IFN-α (donor 28060, Table 16): 0 pg/mL
IFN-γ (donor 28060, Table 16): 6 pg/mL
activity when formulated with cPLGA, in words (formulated with cPLGA): all had significant activity when formulated on cPLGA
IFN-α (pg/ml) mean [4]: 0 pg/mL
IFN-γ (pg/ml) mean [4]: 2 pg/mL
immunomodulatory activity (IFN-γ / IFN-α secretion), in words: None of the CICs was active when used alone
